Experimental findings from patent publication US20230067064A1, “METHODS AND COMPOSITIONS FOR MODULATING SPLICING” (SkyHawk Therapeutics, Inc., priority 2019, published 2023) are described below.

One data set has as its system SMN protein. Description: SMN protein assay, Mesoscale Discovery (MSD). It is filed as cell-based, human. Conditions: SMA patient fibroblasts (GM03813), 48 hours, average, read-out: SMN2 Potency - Protein: Protein FL EC50 (average). The protocol: Compounds are tested on spinal muscular atrophy (SMA) patient fibroblasts (GM03813, Coriell) at doses ranging from 2.5 μM to 0.6 nM. 7000 cells/well are seeded in 96-well plates. Compounds are incubated for 48 hours and the cells were lysed with 100 μL of lysis buffer. 20 μL of lysate is used for SMN protein measurement by Mesoscale Discovery (MSD) assay developed by PharmOptima (Michigan). A standard curve prepared with SMN protein ranging from 1 μg/ml to 19.5 pg/ml is used in each MSD plate to calculate the absolute SMN protein amount in each sample.

The test system of data set [1] is MDR1-MDCK cell monolayers. Description: MDCK-MDR1 permeability assay, blood-brain-barrier (BBB) penetration potential. It is filed as in vitro ADME. As for the experimental part: (§1) Each determination is performed in duplicate. […] Analytical conditions are outlined below.
(§2) Papp=(dCr/dt)×Vr/(A×CA) (1)

For another data set, the system named is MDR1. The description is as above. It is filed as in vitro ADME. Conditions: dog, MDCK-MDR1, pH 7.4. As for the experimental part: as §1, §2
The next data set deals with mHTT protein. Description: mHTT protein assay, 2B7-MW1 Mesoscale Discovery (MSD). Conditions: GM04724 lymphoblast cells, 48 hours, 2B7-MW1 MSD; average; read-out: HTT Potency - Protein & Cytotoxicity: EC50 mHTT (average). It is filed as cell-based, human. As for the experimental part: Compounds are tested on GM04724 (CAG 70/20) Huntington's disease patient lymphoblast cells at doses ranging from 10 μM to 0.6 nM. 4,500 cells/well are seeded in 384 well plates. One plate replica is carried out for parallel viability testing by CellTiter Glo (CTG). Compounds are incubated for 48 hours. mHTT protein levels are assessed by the 2B7-MW1 assay via Mesoscale Discovery (MSD) as previously reported (Macdonald et al., 2014). The antibody pair is comprised of previously characterized monoclonals (2B7 and MW1) interrogating two regions for HTT conformation and biological properties: the N17 domain and the polyQ domain (Baldo et al., 2012; Ko et., 2001). 2B7-MW1 is dependent on subject/animal specific levels of HTT at the time of treatment. 2B7-MW1 is dependent on polyQ expansion (e.g., the higher the expansion the higher the signal) and on mHTT size (e.g., a similar polyQ will give higher signal with smaller HTT size). The viability readout is carried out by CTG according to the manufacturer's instructions. The results are show in Table A-10.

The test system of data set [2] is SMN FL and SMN Δ7 mRNA, spinal muscular atrophy (SMA) patient fibroblasts (GM03813). Description: Quantitative splicing assay (SMN). It counts as cell-based, human. Conditions: 24 h, average. As for the experimental part:
Spinal muscular atrophy (SMA) patient fibroblasts (GM03813, Coriell) are plated in 96-well plates at 50,000 cells/well. […] Treated cells are lysed and cDNA synthesized using the Fast Advanced Cells-to-Ct kit (Thermofisher A35378) according to the manufacturer's instructions. 2 μL of each cDNA are used in qPCR reactions. […] Reactions are run in a Quant Studio 6 qPCR instrument with default settings.

Data set [3] relates to cryptic exon within intron 49 of the Huntingtin (HTT) transcripts, GM04724 (CAG 70/20) Huntington's disease patient lymphoblasts. Description: Quantitative splicing assay (HTT). It is filed as cell-based, human. Conditions: average. The protocol:
GM04724 (CAG 70/20) Huntington's disease patient lymphoblasts (Coriell) are plated in 96-well v-bottom plates at 50,000 cells/well. Immediately after plating, cells are dosed with compound for 24 h at concentrations ranging from 2.5 uM to 0.15 nM (0.1% DMSO). Treated cells are lysed and cDNA synthesized using the Fast Advanced Cells-to-Ct kit (Thermofisher A35378) according to the manufacturer's instructions. 2 uL of each cDNA are used in qPCR reactions to confirm the compound-induced inclusion of a cryptic exon within intron 49 of the Huntingtin (HTT) transcripts. The qPCR reactions are prepared in 384-well plates in 10 uL volume, using TaqMan™ Fast Advanced Master Mix [ThermoFisher; 4444965] with primers and probes shown in the table below. Reactions are run in a Quant Studio 6 qPCR instrument with default settings.

[4] abbreviates: dog, MDCK-MDR1, 120 min, 5 μM, pH 7.4.

Like-named read-outs stand apart in the source and are kept apart here.

What is called EC50 is the concentration that produces a half-maximal response. For orientation: Papp A→B means how fast a substance crosses the layer from the apical side. Low values mean slow passage, high ones fast passage. One may read the Papp B→A as how fast a substance crosses the layer from the basolateral side. The term efflux ratio denotes the permeability from basolateral to apical divided by that in the opposite direction, in the common usage. What is called IC50 is the concentration that gives 50% inhibition.

`CN1C2CC[C@@H]1C[C@@H](Oc1ccc(-c3ccc(-n4ccnc4)cc3O)nn1)C2` [compound 301]: the EC50 in the data set on SMN protein fell in the range of 501 to 10000 nM. In addition, in data set [1] (setting [4]), the “General MDCK-MDR1: % Recov A-B” value is listed as 83% and the “General MDCK-MDR1: % Recov B-A” value came out at 91%. For the same molecule, in the data set on MDR1, the Papp A→B at 120 min, 5 μM stood at 2.34 ×10⁻⁶ cm/s; the Papp B→A at 120 min, 5 μM worked out at 48.2 ×10⁻⁶ cm/s; the efflux ratio at 120 min, 5 μM was 21.

For the molecule `CN1[C@@H]2CCC[C@H]1C[C@H](Oc1ccc(-c3ccc(-n4ccnc4)cc3O)nn1)C2` [compound 302], the EC50 in the data set on mHTT protein is 501 to 10000 nM. Also, the EC50 with SMN protein is 51 to 100 nM. In data set [1] (setting [4]), the “General MDCK-MDR1: % Recov A-B” value worked out at 90% and the “General MDCK-MDR1: % Recov B-A” value was determined as 110%. In the data set with MDR1, the Papp A→B at 120 min, 5 μM worked out at 3.09 ×10⁻⁶ cm/s; the Papp B→A at 120 min, 5 μM is 55.8 ×10⁻⁶ cm/s; the efflux ratio at 120 min, 5 μM was 18.

For the molecule `COCC12CCCC(CC(Oc3ccc(-c4ccc(-c5cnn(C)c5)cc4O)nn3)C1)N2` (single isomer, unassigned; ent2) [316-Ent2], the EC50 in the data set with mHTT protein was 16 to 50 nM; in data set [2] (read-out: SMN2 Potency - Splicing: Splicing FL EC50 (average)), 51 to 100 nM; in the data set with SMN protein, 0.01 to 15 nM; in data set [3] (read-out: HTT Potency - Splicing: E49-50 EC50 (average)), 16 to 50 nM; in data set [3] (read-out: HTT Potency - Splicing: E49b EC50 (average)) it was 16 to 50 nM. Also, the IC50 in data set [2] (read-out: SMN2 Potency - Splicing: Splicing D7 IC50 (average)) lay in the range of 16 to 50 nM. Also, the “General MDCK-MDR1: % Recov A-B” value in data set [1] (A-B direction) is 77%. For the same molecule, the “General MDCK-MDR1: % Recov B-A” value in data set [1] (B-A direction) came to 106%. Moreover, the “General MDCK-MDR1: Efflux” value in data set [1] (efflux ratio) is recorded as 40.

Regarding `CN1[C@@H]2CC[C@H]1C[C@H](Oc1ccc(-c3ccc(-c4cn[nH]c4)cc3O)nn1)C2` [compound 306], in the data set on mHTT protein, the half-maximal effective concentration (EC50) lay within 101 to 500 nM. In addition, the EC50 in the data set with SMN protein lay in the range of 501 to 10000 nM. Moreover, in data set [1] (setting [4]), the “General MDCK-MDR1: % Recov A-B” value was 95% and the “General MDCK-MDR1: % Recov B-A” value was found to be 102%. Also, in the data set on MDR1, the Papp A→B at 120 min, 5 μM stood at 1.19 ×10⁻⁶ cm/s; the Papp B→A at 120 min, 5 μM was 55.4 ×10⁻⁶ cm/s; the efflux ratio at 120 min, 5 μM came to 47.
